Activity calls are given as the source filed them. How the calls were made is not given here.
Key:
Experiment in all cases: competitive ABPP of LYPLA1 versus anti-target hydrolases – fluorescence, gel-based ABPP, mouse proteome, late-stage follow-up (AID 504520);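 further: soluble proteome from BW5147 murine T cells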
Settings in all cases: FP-rhodamine fluorescence, stronger effect = higher value
LYPLA2 = tested on: LYPLA2
LYPLA1 = tested on: LYPLA1
ABHD11 = tested on: ABHD11
ESD = tested on: ESD
[1] = molecular target: Platelet-activating factor acetylhydrolase 2, cytoplasmic (Mus musculus) (UniProt Q8VDG7)
Platelet-activating factor acetylhydrolase 2, cytoplasmic (Mus musculus), sequence (Q8VDG7 whole entry, looked up): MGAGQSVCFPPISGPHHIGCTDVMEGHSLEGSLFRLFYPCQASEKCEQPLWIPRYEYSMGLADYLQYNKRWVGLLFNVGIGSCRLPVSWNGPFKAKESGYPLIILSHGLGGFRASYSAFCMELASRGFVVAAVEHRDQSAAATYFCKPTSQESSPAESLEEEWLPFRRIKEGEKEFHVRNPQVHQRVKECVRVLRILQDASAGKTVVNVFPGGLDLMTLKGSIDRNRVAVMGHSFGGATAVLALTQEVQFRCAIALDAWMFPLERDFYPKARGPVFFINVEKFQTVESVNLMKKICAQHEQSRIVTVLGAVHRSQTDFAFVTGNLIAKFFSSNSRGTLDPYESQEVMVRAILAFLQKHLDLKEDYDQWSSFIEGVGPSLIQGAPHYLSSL

| inhibition (LYPLA2; at 0.75 µM) | inhibition (LYPLA2; inhibition, at 0.03 µM) [%] | inhibition (LYPLA2; inhibition, at 0.15 µM) [%] | inhibition (LYPLA1; at 0.75 µM) | inhibition (LYPLA1; inhibition, at 0.03 µM) [%] | inhibition (LYPLA1; inhibition, at 0.15 µM) [%] | inhibition (ABHD11; at 0.75 µM) [%] | inhibition (ABHD11; inhibition, at 0.03 µM) [%] | inhibition (ABHD11; inhibition, at 0.15 µM) [%] | inhibition (ESD; at 0.75 µM) | inhibition (ESD; inhibition, at 0.03 µM) [%] | inhibition (ESD; inhibition, at 0.15 µM) [%] | inhibition ([1]; PAFAH2, at 0.75 µM) | inhibition ([1]; PAFAH2, inhibition, at 0.03 µM) [%] | inhibition ([1]; PAFAH2, inhibition, at 0.15 µM) [%] | Structure (SMILES) |
| --- | --- | --- | --- | --- | --- | --- | --- | --- | --- | --- | --- | --- | --- | --- | --- |
| 25% (inactive) | 0 | 0 | 100% | 0 | 50 | 100 | 100 | 100 | 25% (inactive) | 0 | 0 | 0% (inactive) | 0 | 0 | COC1CCN(C(=O)n2ncc(C(O)(c3ccccc3)c3ccccc3)n2)CC1 |
| 0% (inactive) | 0 | 0 | 0% (inactive) | 0 | 0 | 75 | 0 | 50 | 0% (inactive) | 0 | 0 | 0% (inactive) | 0 | 0 | COCCCC1CCCCN1C(=O)n1ncc(C(O)(c2ccccc2)c2ccccc2)n1 (stereo not given) |
